Measurements from patent US20250302913A1, “LACRIPEP PROMOTES NEUROREGENERATION AND MAINTAINS EPITHELIAL PROGENITOR CELL IDENTITY” (The Regents of The University of California, priority 2022, published 2025).

Test system: Aire KO mice
Test: Basal tear secretion (phenol red thread) in Aire KO dry eye mice
Type: in vivo, mouse
Settings: day 15, 4 μM topical 3x per day for 14 days
Description: To determine the impact of lacripep on physiological (basal) tear secretion, lacripep (4 μM) or phosphate buffered saline (PBS, control) was topically applied to Aire KO corneas 3 times (3×) per day for 14 consecutive days (from 5 to 7 wk of age) and tear production was measured at day 0, 7 and 15 (FIG. 1A).
All procedures were approved by the UCSF Institutional Animal Care and Use Committee (IACUC) and adhered to the NIH Guide for the Care and Use of Laboratory Animals (Approval number: 332AN089075-02). Wild type (WT) and Aire-deficient mice on the BALB/c background (BALB/c Aire KO) were the gift of Mark Anderson, University of California, San Francisco. Adult female mice (aged between 5 and 7 weeks) were used in all experiments. […] Appropriate sample size was calculated using power calculations. […]
Mice were anesthetized with isoflurane and basal tear secretion was then measured using a Zone-Quick phenol red thread (as indicated by the length of the tear-absorbed region in 15 seconds). Stimulated tear secretion was measured after 4.5 mg/kg of pilocarpine diluted in saline was injected into the peritoneum (i.p.). Ten minutes later, mice were anesthetized with isoflurane and tear secretion was measured using a Zone-Quick phenol red thread (Showa Yakuhin Kako Co. Ltd., Tokyo, Japan).

## Ac-KQFIENGSEFAQKLLKKFSLLKPWA-NH2 [lacripep, amino terminus acetylated, carboxyl terminus aminated]
  basal tear volumes relative to WT: 83 % of WT
